The target of assay [1] is T1, heparanase (Homo sapiens, UniProt Q9Y251).
T1 sequence (Q9Y251 158-543 limits assumed): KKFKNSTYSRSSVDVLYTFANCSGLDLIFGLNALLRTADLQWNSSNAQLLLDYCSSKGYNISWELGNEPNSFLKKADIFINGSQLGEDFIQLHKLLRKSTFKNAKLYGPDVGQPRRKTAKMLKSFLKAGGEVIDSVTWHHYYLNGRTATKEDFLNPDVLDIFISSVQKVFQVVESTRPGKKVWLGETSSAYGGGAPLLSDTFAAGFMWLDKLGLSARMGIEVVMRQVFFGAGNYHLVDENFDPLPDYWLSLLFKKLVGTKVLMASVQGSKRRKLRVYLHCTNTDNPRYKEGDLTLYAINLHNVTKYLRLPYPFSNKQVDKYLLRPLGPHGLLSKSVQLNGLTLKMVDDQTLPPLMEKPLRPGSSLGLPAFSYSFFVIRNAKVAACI
T1 sequence (Q9Y251 36-109 limits assumed): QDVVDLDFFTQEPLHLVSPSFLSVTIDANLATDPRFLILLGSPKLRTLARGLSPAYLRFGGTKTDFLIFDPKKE
Description: Heparanase inhibition assay based on cleavage of fondaparinux, disaccharide assayed by colorimetry (Hammond). It is filed as biochemical. The note with it: for Inhibition of heparanase: over the concentration range tested. The text has this: To prepare 12 we adopted (Scheme 1) a classical disaccharide building-block approach (C. Tabeur et al., Oligosaccharides corresponding to the regular sequence of heparin: chemical synthesis and interaction with FGF-2. Bioorg. Med. Chem. 1999, 7, 2003-2012) based on the trichloroacetimidate glycosylation method (R. R. Schmidt, W. Kinzy, Adv. Carbohydr. Chem. Biochem. 1992, 50, 21-123). […] The hexasaccharide sequence was completed by reaction under similar conditions with the trichloroacetimidate disaccharide 8 itself classically obtained from 6. […] After saponification to remove the acetyl groups and cleave the methyl esters, preparative HPLC allowed to separate 10 from its β-anomer. […] The glycol-split derivatives were then obtained (Scheme 2). […] The inhibition of heparanase was evaluated using an assay based on the cleavage of the synthetic heparin pentasaccharide fondaparinux (Arixtra®; Aspen). Cleavage of fondaparinux by heparanase, yields a disaccharide that is assayed by colorimetry. The assay was essentially performed as described by Hammond (E. Hammond, C. P. Li, V. Ferro, Development of a colorimetric assay for heparanase activity suitable for kinetic analysis and inhibitor screening, Anal. Biochem. 396 (2010), 112-116, http://doi.10.1016/j.ab.2009.09.007.
Serial dilutions of the compounds and of the reference roneparstat were tested. IC50 values were ultimately determined using GraphPad software.

The target of assay [2] is T1, heparanase. The note with it: cited from earlier work.

Read-outs that look alike come from different tables or passages of the source. Where only a bound is given, the exact number is not on record here.

`COC1OC(COS(=O)(=O)O)C(OC2OC(C(=O)O)C(OC3OC(COS(=O)(=O)O)C(OC4OC(C(=O)O)C(OC5OC(COS(=O)(=O)O)C(OC6OC(C(=O)O)C(OC)C(O)C6OS(=O)(=O)O)C(O)C5N)C(O)C4O)C(O)C3N)C(O)C2OS(=O)(=O)O)C(O)C1N` (stereo not drawn) [Compound 12]: in assay [1], the Inhibition of heparanase entry is “hardly detectable”.
One may read the IC50 as the concentration at which inhibition is half-maximal. On to `COC1OC(COS(=O)(=O)O)C(OC2OC(C(=O)O)C(OC3OC(COS(=O)(=O)O)C(OC4OC(C(=O)O)C(OC5OC(COS(=O)(=O)O)C(OC6OC(C(=O)O)C(OC)C(O)C6OS(=O)(=O)O)C(O)C5NS(=O)(=O)O)C(O)C4O)C(O)C3NS(=O)(=O)O)C(O)C2OS(=O)(=O)O)C(O)C1NS(=O)(=O)O` (stereo not drawn) [Compound 13], for which, in assay [1] (Table 1, hexasaccharides, read-out: IC50), the IC50 is > 29.4 µM. For the same compound, the Inhibition of heparanase result in assay [1] is “hardly detectable”.
In the case of `COC1OC(COS(=O)(=O)O)C(OC2OC(C(=O)O)C(OC3OC(COS(=O)(=O)O)C(OC4OC(C(=O)O)C(OC5OC(COS(=O)(=O)O)C(OC6OC(C(=O)O)C(OC)C(O)C6OS(=O)(=O)O)C(O)C5NC(C)=O)C(O)C4O)C(O)C3NC(C)=O)C(O)C2OS(=O)(=O)O)C(O)C1NC(C)=O` (stereo not drawn) [Compound 16], the Inhibition of heparanase entry in assay [1] is reported as “hardly detectable”.
In the case of GlcN(Ns,6s)-GlcA(gs)-GlcN(Ns,1,6anh), in assay [2], the 50% inhibitory concentration (IC50) was 2 µg/mL.
Roneparstat [reference compound] yielded an IC50 in assay [1] of 0.006 µg/mL.

(Values after patent publication US20260001967A1, “SYNTHETIC HEXASACCHARIDES MIMICS OF HEPARIN SHOWING HEPARANASE INHIBITION ACTIVITY” (CENTRO ALTA TECNOLOGIA ISTITUTO DI RICERCHE CHIMICHE E …, priority 2022, published 2026).)
